# Measurements published in publication PMC11571108, “Targeting PfCLK3 with Covalent Inhibitors: A Novel Strategy for Malaria Treatment” (Journal of Medicinal Chemistry, 2024).
# How the values were obtained:
# Assay in all cases: biochemical
# IGF-1R(h) = IGF-1R(h) (Homo sapiens, UniProt P08069)
# Protocol: (§1) Compounds were evaluated using Eurofins Discovery’s KinaseProfiler Diversity Panel of 58 representative kinases. KinaseProfiler is a radiometric assay using [γ-^33P]-ATP to measure the phosphorylation of individual kinase substrates. A representative protocol for Abl is given below. Further details can be found by visiting the Eurofins Discovery Web site.
# (§2) The reaction is initiated by the addition of the Mg/ATP mix. After incubation for 40 min at room temperature, the reaction is stopped by the addition of phosphoric acid to a concentration of 0.5%.
# MAPKAP-K2(h) = MAPKAP-K2(h) (Homo sapiens, UniProt P49137)
# Protocol: as §1, §2
# p70S6K(h) = p70S6K(h) (Homo sapiens, UniProt P23443)
# Protocol: as §1, §2
# LOK(h) = LOK(h) (Homo sapiens, UniProt O94804)
# Protocol: as §1, §2
# PKBα(h) = PKBα(h) (Homo sapiens, UniProt P31749)
# Protocol: as §1, §2
# Rse(h) = Rse(h) (Homo sapiens, UniProt Q06418)
# Protocol: as §1, §2
# EGFR(h) = EGFR(h) (Homo sapiens, UniProt P00533)
# Protocol: as §1, §2
# MEK1(h) = MEK1(h) (Homo sapiens, UniProt Q02750)
# Protocol: as §1, §2
# PRAK(h) = PRAK(h) (Homo sapiens, UniProt Q8IW41)
# Protocol: as §1, §2
# EphA5(h) = EphA5(h) (Homo sapiens, UniProt P54756)
# Protocol: as §1, §2
# PKA(h) = PKA(h) (Homo sapiens, UniProt P17612)
# Protocol: as §1, §2
# Plk3(h) = Plk3(h) (Homo sapiens, UniProt Q9H4B4)
# Protocol: as §1, §2
# SRPK1(h) = SRPK1(h) (Homo sapiens, UniProt Q96SB4)
# Protocol: as §1, §2
# ROCK-I(h) = ROCK-I(h) (Homo sapiens, UniProt Q13464)
# Protocol: as §1, §2
# mTOR(h) = mTOR(h) (Homo sapiens, UniProt P42345)
# Protocol: as §1, §2
# Rsk1(h) = Rsk1(h) (Homo sapiens, UniProt Q15418)
# Protocol: as §1, §2
# PKG1α(h) = PKG1α(h) (Homo sapiens, UniProt Q13976)
# Protocol: as §1, §2
# MLK1(h) = MLK1(h) (Homo sapiens, UniProt P80192)
# Protocol: as §1, §2
# NEK2(h) = NEK2(h) (Homo sapiens, UniProt P51955)
# Protocol: as §1, §2
# KDR(h) = KDR(h) (Homo sapiens, UniProt P35968)
# Protocol: as §1, §2
# eEF-2K(h) = eEF-2K(h) (Homo sapiens, UniProt O00418)
# Protocol: as §1, §2
# PDGFRβ(h) = PDGFRβ(h) (Homo sapiens, UniProt P09619)
# Protocol: as §1, §2
# EphB4(h) = EphB4(h) (Homo sapiens, UniProt P54760)
# Protocol: as §1, §2
# Fyn(h) = Fyn(h) (Homo sapiens, UniProt P06241)
# Protocol: as §1, §2
# IRAK4(h) = IRAK4(h) (Homo sapiens, UniProt Q9NWZ3)
# Protocol: as §1, §2
# PI3 Kinase (p120g)(h) = PI3 Kinase (p120g)(h) (Homo sapiens, UniProt P48736)
# Protocol: as §1, §2
# PKCθ(h) = PKCθ(h) (Homo sapiens, UniProt Q04759)
# Protocol: as §1, §2
# MSK2(h) = MSK2(h) (Homo sapiens, UniProt O75676)
# Protocol: as §1, §2
# TAK1(h) = TAK1(h) (Homo sapiens, UniProt O43318)
# Protocol: as §1, §2
# MST1(h) = MST1(h) (Homo sapiens, UniProt Q13043)
# Protocol: as §1, §2
# Lyn(h) = Lyn(h) (Homo sapiens, UniProt P07948)
# Protocol: as §1, §2
# Pim-1(h) = Pim-1(h) (Homo sapiens, UniProt P11309)
# Protocol: as §1, §2
# Mnk2(h) = Mnk2(h) (Homo sapiens, UniProt Q9HBH9)
# Protocol: as §1, §2
# JAK2(h) = JAK2(h) (Homo sapiens, UniProt O60674)
# Protocol: as §1, §2
# PKCα(h) = PKCα(h) (Homo sapiens, UniProt P17252)
# Protocol: as §1, §2
# IKKα(h) = IKKα(h) (Homo sapiens, UniProt O15111)
# Protocol: as §1, §2
# SAPK2a(h) = SAPK2a(h) (Homo sapiens, UniProt Q16539)
# Protocol: as §1, §2
# PAK2(h) = PAK2(h) (Homo sapiens, UniProt Q13177)
# Protocol: as §1, §2
# PKG1α(h), sequence (Q13976 whole entry): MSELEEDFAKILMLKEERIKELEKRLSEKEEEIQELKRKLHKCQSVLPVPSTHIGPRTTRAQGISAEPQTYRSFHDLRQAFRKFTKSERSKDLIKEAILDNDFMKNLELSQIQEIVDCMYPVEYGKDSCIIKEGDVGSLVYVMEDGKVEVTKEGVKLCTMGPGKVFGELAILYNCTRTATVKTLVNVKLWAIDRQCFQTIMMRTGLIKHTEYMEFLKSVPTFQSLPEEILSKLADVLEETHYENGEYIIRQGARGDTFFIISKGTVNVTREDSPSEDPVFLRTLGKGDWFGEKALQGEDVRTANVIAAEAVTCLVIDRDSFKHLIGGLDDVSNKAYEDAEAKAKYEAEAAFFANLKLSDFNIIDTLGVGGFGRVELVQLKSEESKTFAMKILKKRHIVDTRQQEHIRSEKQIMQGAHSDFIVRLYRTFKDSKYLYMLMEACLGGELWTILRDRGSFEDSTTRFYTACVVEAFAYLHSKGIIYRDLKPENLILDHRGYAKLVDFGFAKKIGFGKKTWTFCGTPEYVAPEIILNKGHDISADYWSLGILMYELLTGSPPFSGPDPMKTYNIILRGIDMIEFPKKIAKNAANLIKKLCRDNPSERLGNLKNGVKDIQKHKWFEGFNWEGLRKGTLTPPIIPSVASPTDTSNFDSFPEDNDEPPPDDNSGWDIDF
# Lyn(h), sequence (P07948 whole entry): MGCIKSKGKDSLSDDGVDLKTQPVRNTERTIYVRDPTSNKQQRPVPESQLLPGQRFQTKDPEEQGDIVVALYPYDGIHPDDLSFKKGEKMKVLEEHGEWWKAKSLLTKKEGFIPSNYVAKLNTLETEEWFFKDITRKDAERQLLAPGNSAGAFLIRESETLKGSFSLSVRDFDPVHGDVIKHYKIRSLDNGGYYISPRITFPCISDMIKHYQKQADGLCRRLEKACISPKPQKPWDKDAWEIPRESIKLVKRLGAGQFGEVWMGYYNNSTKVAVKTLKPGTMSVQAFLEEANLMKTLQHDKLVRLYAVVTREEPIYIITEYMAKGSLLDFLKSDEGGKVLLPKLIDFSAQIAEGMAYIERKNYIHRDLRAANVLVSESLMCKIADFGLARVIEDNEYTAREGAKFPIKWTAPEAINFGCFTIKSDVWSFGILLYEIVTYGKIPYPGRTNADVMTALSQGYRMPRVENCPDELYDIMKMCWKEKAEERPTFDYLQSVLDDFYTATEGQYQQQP
# Mnk2(h), sequence (Q9HBH9 whole entry): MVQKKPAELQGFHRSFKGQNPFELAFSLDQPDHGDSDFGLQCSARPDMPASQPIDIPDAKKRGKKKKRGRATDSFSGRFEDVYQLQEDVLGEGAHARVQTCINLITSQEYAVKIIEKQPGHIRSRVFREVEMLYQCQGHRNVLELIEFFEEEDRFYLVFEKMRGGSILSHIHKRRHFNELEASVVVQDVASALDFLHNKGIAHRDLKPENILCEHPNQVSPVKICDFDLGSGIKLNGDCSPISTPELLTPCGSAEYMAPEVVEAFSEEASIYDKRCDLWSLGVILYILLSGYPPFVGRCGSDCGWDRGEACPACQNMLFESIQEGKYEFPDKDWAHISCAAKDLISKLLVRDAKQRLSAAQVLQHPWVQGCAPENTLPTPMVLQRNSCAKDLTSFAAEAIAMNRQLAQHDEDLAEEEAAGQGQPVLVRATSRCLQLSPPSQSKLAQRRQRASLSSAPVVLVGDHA
# ROCK-I(h), sequence (Q13464 whole entry): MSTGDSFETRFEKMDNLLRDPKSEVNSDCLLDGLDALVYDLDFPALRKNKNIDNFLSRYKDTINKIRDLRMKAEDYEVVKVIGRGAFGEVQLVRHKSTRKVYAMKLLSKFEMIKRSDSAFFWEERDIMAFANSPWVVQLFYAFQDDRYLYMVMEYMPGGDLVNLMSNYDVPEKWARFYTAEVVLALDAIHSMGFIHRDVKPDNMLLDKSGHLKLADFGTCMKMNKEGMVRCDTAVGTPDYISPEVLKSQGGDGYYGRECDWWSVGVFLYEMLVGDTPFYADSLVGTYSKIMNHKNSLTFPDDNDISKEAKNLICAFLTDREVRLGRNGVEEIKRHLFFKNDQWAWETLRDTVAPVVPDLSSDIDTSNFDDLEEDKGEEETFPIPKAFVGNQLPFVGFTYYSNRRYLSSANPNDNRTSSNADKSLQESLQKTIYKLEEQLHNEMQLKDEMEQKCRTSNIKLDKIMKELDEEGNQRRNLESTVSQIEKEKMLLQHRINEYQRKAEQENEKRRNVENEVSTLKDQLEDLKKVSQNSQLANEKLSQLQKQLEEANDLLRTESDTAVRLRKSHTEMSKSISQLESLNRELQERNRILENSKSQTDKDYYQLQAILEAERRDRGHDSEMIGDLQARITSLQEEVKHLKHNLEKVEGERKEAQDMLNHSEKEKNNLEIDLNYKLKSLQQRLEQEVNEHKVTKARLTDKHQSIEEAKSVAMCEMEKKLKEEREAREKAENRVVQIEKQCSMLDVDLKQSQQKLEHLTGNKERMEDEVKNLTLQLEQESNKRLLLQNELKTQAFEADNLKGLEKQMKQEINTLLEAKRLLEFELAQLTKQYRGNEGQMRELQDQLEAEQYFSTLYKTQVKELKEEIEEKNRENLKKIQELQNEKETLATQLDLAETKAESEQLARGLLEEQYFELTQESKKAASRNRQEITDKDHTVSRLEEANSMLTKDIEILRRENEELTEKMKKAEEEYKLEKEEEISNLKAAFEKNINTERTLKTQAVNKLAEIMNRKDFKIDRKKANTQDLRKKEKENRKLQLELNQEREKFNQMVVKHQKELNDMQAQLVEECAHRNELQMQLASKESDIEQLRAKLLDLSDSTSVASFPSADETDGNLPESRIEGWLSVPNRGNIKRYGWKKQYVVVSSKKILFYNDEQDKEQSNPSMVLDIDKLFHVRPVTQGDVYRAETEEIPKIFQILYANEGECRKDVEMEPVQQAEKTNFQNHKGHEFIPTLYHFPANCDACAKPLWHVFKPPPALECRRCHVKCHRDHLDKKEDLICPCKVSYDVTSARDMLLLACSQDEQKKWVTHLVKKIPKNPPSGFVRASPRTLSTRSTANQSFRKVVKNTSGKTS
# EGFR(h), sequence (P00533 25-1210): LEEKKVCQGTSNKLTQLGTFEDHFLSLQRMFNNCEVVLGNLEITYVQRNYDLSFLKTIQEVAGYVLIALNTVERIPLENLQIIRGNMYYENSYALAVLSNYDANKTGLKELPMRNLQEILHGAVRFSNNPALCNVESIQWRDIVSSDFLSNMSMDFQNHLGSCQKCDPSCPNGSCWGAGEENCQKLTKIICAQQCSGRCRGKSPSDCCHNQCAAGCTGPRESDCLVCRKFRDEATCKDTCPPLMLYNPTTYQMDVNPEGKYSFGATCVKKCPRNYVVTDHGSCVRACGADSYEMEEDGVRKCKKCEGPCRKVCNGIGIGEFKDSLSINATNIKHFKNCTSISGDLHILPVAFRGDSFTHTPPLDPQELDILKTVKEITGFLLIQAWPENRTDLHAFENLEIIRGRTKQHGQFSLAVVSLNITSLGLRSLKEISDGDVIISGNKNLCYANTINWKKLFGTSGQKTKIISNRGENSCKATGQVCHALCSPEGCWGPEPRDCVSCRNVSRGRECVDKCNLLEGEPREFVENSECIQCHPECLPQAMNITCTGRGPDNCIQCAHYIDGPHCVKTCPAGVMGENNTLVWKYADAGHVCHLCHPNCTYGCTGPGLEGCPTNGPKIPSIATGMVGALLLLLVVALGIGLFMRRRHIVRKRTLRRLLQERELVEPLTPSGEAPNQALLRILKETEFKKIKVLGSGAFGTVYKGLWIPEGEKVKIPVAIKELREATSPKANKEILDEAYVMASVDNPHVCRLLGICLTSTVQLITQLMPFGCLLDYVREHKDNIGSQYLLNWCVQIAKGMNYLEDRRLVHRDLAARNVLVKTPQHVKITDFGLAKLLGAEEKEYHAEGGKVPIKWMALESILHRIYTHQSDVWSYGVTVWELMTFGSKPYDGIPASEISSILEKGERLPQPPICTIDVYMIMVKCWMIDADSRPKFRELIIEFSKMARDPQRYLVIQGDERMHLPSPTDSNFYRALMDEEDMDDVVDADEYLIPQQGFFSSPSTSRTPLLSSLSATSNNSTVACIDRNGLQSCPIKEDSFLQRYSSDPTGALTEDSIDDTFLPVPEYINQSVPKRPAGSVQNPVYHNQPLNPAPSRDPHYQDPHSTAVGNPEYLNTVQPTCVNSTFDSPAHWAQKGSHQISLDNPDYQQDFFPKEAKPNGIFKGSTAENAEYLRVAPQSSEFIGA
# eEF-2K(h), sequence (O00418 whole entry): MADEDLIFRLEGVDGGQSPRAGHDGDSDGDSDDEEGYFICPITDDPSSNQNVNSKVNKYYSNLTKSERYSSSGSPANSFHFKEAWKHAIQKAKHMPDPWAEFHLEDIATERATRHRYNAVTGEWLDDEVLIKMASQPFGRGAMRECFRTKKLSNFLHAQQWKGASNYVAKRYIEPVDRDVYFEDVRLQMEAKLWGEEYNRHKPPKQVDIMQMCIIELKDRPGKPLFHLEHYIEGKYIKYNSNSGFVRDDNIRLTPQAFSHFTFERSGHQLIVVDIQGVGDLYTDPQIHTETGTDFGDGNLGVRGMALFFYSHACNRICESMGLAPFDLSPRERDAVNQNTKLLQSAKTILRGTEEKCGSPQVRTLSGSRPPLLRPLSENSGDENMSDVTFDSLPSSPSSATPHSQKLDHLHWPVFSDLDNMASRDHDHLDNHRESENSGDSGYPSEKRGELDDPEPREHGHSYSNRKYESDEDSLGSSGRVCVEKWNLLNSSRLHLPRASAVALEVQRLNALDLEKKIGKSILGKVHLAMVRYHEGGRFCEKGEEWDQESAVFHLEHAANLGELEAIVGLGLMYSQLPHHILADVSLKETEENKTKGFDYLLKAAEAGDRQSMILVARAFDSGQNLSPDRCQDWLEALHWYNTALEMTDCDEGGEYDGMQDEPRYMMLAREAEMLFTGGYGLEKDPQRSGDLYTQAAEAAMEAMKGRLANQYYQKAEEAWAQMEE
compound,measurement,setting,value
"CCN(CC)Cc1ccc(OC)c(-c2cc3c(-c4ccc(C(=O)O)c(C(C)C)c4)ccnc3[nH]2)c1 [Compound 1, TCMDC-135051]",remaining activity at 1 µM,IGF-1R(h),94%
same,remaining activity at 1 µM,MAPKAP-K2(h),94%
same,remaining activity at 1 µM,p70S6K(h),100%
same,remaining activity at 1 µM,LOK(h),37%
same,remaining activity at 1 µM,PKBα(h),106%
same,remaining activity at 1 µM,Rse(h),109%
same,remaining activity at 1 µM,EGFR(h),95%
same,remaining activity at 1 µM,MEK1(h),100%
same,remaining activity at 1 µM,PRAK(h),74%
same,remaining activity at 1 µM,EphA5(h),97%
same,remaining activity at 1 µM,PKA(h),101%
same,remaining activity at 1 µM,Plk3(h),100%
same,remaining activity at 1 µM,SRPK1(h),105%
same,remaining activity at 1 µM,ROCK-I(h),117%
same,remaining activity at 1 µM,mTOR(h),100%
same,remaining activity at 1 µM,Rsk1(h),105%
same,remaining activity at 1 µM,PKG1α(h),105%
same,remaining activity at 1 µM,MLK1(h),92%
same,remaining activity at 1 µM,NEK2(h),105%
same,remaining activity at 1 µM,KDR(h),61%
same,remaining activity at 1 µM,eEF-2K(h),100%
same,remaining activity at 1 µM,PDGFRβ(h),94%
same,remaining activity at 1 µM,EphB4(h),104%
same,remaining activity at 1 µM,Fyn(h),49%
same,remaining activity at 1 µM,IRAK4(h),27%
same,remaining activity at 1 µM,PI3 Kinase (p120g)(h),96%
same,remaining activity at 1 µM,PKCθ(h),108%
same,remaining activity at 1 µM,MSK2(h),100%
same,remaining activity at 1 µM,TAK1(h),45%
same,remaining activity at 1 µM,MST1(h),84%
same,remaining activity at 1 µM,Lyn(h),28%
same,remaining activity at 1 µM,Pim-1(h),101%
same,remaining activity at 1 µM,Mnk2(h),38%
same,remaining activity at 1 µM,JAK2(h),20%
same,remaining activity at 1 µM,PKCα(h),73%
same,remaining activity at 1 µM,IKKα(h),93%
same,remaining activity at 1 µM,SAPK2a(h),105%
same,remaining activity at 1 µM,PAK2(h),110%
